{"source": "patent US20080167571A1", "about": "“DETERMINATION OF TREATMENT RESULTS PRIOR TO TREATMENT OR AFTER FEW TREATMENT EVENTS” (priority 2006, published 2008)", "key": {"[1]": {"experiment": "Neuropsychological and neurophysiological testing of AEDs, double-blind randomized two period crossover", "format": "in vivo, healthy adult volunteers", "excerpt": "The purpose of the underlying study was to evaluate the neuropsychological and neurophysiological effects of the AED carbamazepine (CBZ), and the AED levitiracetam (LEV) in healthy subjects, employing a double-blind, two period crossover design (Meador et al., 2007). In accordance with the present invention, data at non-drug baseline sessions predicted which subjects would have the most negative effects of CBZ.\nA total of 28 healthy adult volunteers without history of neurological or psychiatric diseases completed the protocol (17 women; 11 men; mean age=33 years, range=18-51). All subjects remained free of centrally active prescription medications throughout the study.\nThe study employed a double-blind, randomized, two period crossover design. Subjects were screened and tested at the non-drug baseline.\nSubsequently, they were randomly assigned to receive either AED. Each AED was administered over eight weeks, which included a titration period and a one month maintenance period. Each AED treatment period was followed by a four day taper and a washout period for the remainder of the four weeks. Then, subjects were treated with the other AED for eight weeks followed by a final four week washout period.\nCBZ was given at 200 mg/day for the first week, 200 mg/day bid for the 2nd week, then adjusted to midrange anticonvulsant blood levels (ABLs) at tid dosages. LEV was begun at 500 mg/day for two weeks, then increased to 500 mg bid for two weeks, then increased to 1000 mg bid.\nSubjects underwent neuropsychological and neurophysiological testing on six occasions (i.e., two AED conditions and four non-drug conditions) over 25 weeks. Test sessions occurred at week one before drug administration, at week nine after four weeks of titration and maintenance on the first drug for four weeks, at week 21 after 4 weeks of wash out, 4 weeks of titration on drug 2 and 4 weeks maintenance on drug 2, and at week 25 after 4 weeks of washout.\nPatient data was obtained in accordance with procedures set forth in U.S. Pat. Nos. 6,947,790; 6,434,419 and 5,295,491; in this embodiment EEG data was obtained simultaneously with the subject taking a test battery of attention demanding tasks, for example a set of psychometric tasks.\nData was obtained from a verbal episodic memory task consisting of a word presentation phase, during which subjects had to indicate whether each word contained 1 or 2 syllables, and a delayed recognition phase in which subjects had to indicate whether each word had been presented earlier. A working memory task was presented in between these two phases, and acted as a distracter task. During the first repetition of this sequence, the working memory task was a low-load 1-back task, and during the second repetition, the working memory task was a high-load 2-back task. A number of standard neuropsychological and subjective rating scales were also administered. Test sessions lasted about an hour."}, "[2]": {"experiment": "Post-drug EEG and subjective scale measures (LDA neurocognitive drug response score)", "format": "in vivo, healthy adult volunteers", "conditions": "post-drug vs non-drug baseline", "excerpt": "Using the data and methods described in Example 1, we determined how a combination of post-drug EEG and the subject's subjective scale measures quantifies the response to carbamazepine. Accordingly, a stepwise linear discriminant analysis (LDA) was used to generate a neurocognitive drug response score for each subject, reflecting the magnitude of neurocognitive response to the drug as compared with the non-drug baseline. The sensitivity and specificity in detecting the effect of the drug were both 100%. Three variables were used in the LDA, of which two were EEG and one was a subjective scale measure. The EEG variables were occipito-parietal 2-10 Hz EEG power in all tasks (relative weight 0.6) which increased consequent to CBZ, peak alpha frequency in all tasks (relative weight 0.3) which decreased consequent to CBZ, and self-reported fatigue rating on the Profile of Mood Scale (POMS, Jacobson et al., 1978) (relative weight 0.3) which increased consequent to CBZ."}, "[3]": {"experiment": "Symbol Digits Modality Test (SDMT) after taking CBZ", "format": "in vivo, healthy adult volunteers", "excerpt": "The SDMT is a standard neuropsychological test of “executive function” and includes complex scanning, visual tracking, and agility components. These non-drug baseline values of task performance, EEG, and evoked potential variables that were most sensitive to the effects of CBZ were used as candidate independent predictor variables. Stepwise multiple linear regression analysis was used to identify which of these candidate independent predictor variables at baseline best predicted the change in the SDMT after taking CBZ."}, "[4]": {"experiment": "EEG with 1-back working memory task during methylphenidate dose titration in pediatric ADHD", "format": "in vivo, patients diagnosed with ADHD", "experimental": "Fourteen patients diagnosed with ADHD and clinically classified by a physician specialist in ADHD as MPH-responders (patients who would benefit from taking MPH) completed the protocol (11 males, 3 females; age range 8-18, mean 11.3, standard deviation 3.1). All patients weighed more than 25 kg.\nPatients received one week each of placebo (0 mg), 5 mg, 10 mg, 15 mg, and 20 mg daily doses of MPH for a total of five weeks, according to a fully counterbalanced, placebo-controlled, double-blind design. In this example EEG data was obtained concurrent with selected attention demanding tasks. […] Accordingly, an EEG computer-based examination was obtained simultaneously with the subject taking a test battery of attention demanding tasks, for example a set of psychometric tasks. Such data was obtained once a week, 1-3 hours post-ingestion of the prescribed dose for that week. Examinations were administered approximately the same time of day and on the same day of the week during the dose titration period. The protocol used in this study included a low-load simple reaction time task (SRT) task and a higher-load 1-back working memory (WM) task in sessions lasting about half an hour.\nAnalysis focused on the 1-back working memory task whose performance and EEG signals were most affected by MPH A divergence-based multivariate feature selection and pattern classification algorithm (for convenience called the neuroworkload meter—Gevins and Smith, 2003; Smith, Gevins, et al, 2001) was employed to choose and weight an optimal subset of features to characterize the MPH response.\nA set of candidate 1-back WM performance and attention-sensitive EEG features most affected by varying MPH doses was selected based on the prior statistical analyses of the average of the MPH doses followed by visual inspection of the grand averaged EEG power spectra and evoked potential data. Feature subsets were limited to a maximum of four variables because of the small number of subjects in the experiment. […]"}, "[5]": {"conditions": "in vivo; cited from earlier work"}}, "data": [{"smiles": "NC(=O)N1c2ccccc2C=Cc2ccccc21", "note": "[CBZ, carbamazepine]", "values": [{"measurement": "variables worse compared to the non-drug average", "setting": "[1]; CBZ 36 of 55, LEV 4 of 33", "value": 65, "unit": "%"}, {"measurement": "low frequency (<10 Hz) EEG power", "setting": "[1]; after one month maintenance", "value": "increase"}, {"measurement": "occipito-parietal 2-10 Hz EEG power in all tasks", "setting": "[2]", "value": "increased"}, {"measurement": "peak alpha frequency in all tasks", "setting": "[2]", "value": "decreased"}, {"measurement": "self-reported fatigue rating on the Profile of Mood Scale (POMS)", "setting": "[2]", "value": "increased"}, {"measurement": "subjects with a decline in SDMT score of at least 15%", "setting": "[3]; 28 subjects", "value": "Six of the 28 subjects"}, {"measurement": "average decline in SDMT", "setting": "[3]; actual, across the 28 subjects, p<0.0003", "value": 6.7, "unit": "%"}]}, {"smiles": "CC[C@@H](C(N)=O)N1CCCC1=O", "note": "[LEV, levetiracetam]", "values": [{"measurement": "untoward neuropsychological and neurophysiological effects", "setting": "[1]; in vivo", "value": "fewer untoward neuropsychological and neurophysiological effects than did CBZ"}, {"measurement": "variables with significant differences between the AEDs, all in favor of LEV", "setting": "[1]; in vivo", "value": 42, "unit": "%"}, {"measurement": "variables worse compared to the non-drug average", "setting": "[1]; in vivo", "value": 12, "unit": "%"}]}, {"smiles": "COC(=O)C(c1ccccc1)C1CCCCN1", "note": "(stereo not drawn) [MPH, methylphenidate]", "values": [{"measurement": "dose-response relationship across patients", "setting": "[4]; 0, 5, 10, 15, 20 mg daily, one week each", "value": "did not reveal any systematic dose-response relationship"}, {"measurement": "effect size (Cohen's d) of four-variable equation score", "setting": "[4]; 20 mg vs placebo", "value": 2.12}, {"measurement": "effect size (Cohen's d), dose with the highest score vs placebo", "setting": "[4]; two-dose test analysis", "value": 3.43}]}, {"smiles": "CC1(C)O[C@@H]2[C@@H](CO[C@@]3(COS(N)(=O)=O)OC(C)(C)O[C@@H]23)O1", "note": "[topiramate]", "values": [{"measurement": "2-6 Hz EEG power", "setting": "[5]", "value": "increased"}, {"measurement": "working memory task performance", "setting": "[5]", "value": "adversely affected"}]}]}
